Measurements as given in publication PMC2749869, “Reversal of oncogene transformation and suppression of tumor growth by the novel IGF1R kinase inhibitor A-928605” (BMC Cancer, 2009).
“Also recorded” adds a separate entry of the source. Each block holds one compound with its values, some of them ahead of it.

Columns and labels:
[1] = target: IGF1R (Homo sapiens, UniProt P08069); test: In vitro kinase panel (kinome profile), IGF1R; format: biochemical
Method: (§1) Figure 1 Chemical structure and activity of A-928605. A, The chemical name of A-928605 is 3-(2-(2-chlorobenzyl)-1 H-benzo [d]imidazol-5-yl)-1-((1 r, 4 r)-4-morpholinocyclohexyl)-1 H-pyrazolo [3,4-d]pyrimidin-4-amine. B, Kinome profile analysis of A-928605 on 156 unique kinases. Heat map colors correspond to the relative Ki against each kinase, where Ki greater than 1,000 nM are colored green, near 100 nM are yellow and Ki of roughly 10 nM are shaded red.

[2] = target: IR (Homo sapiens, UniProt P06213); test: In vitro kinase panel (kinome profile), IR; format: biochemical
Method: as §1

[3] = target: T1, epidermal growth factor receptor (EGFR) (Homo sapiens, UniProt P00533); test: Cellular EGFR phosphorylation in A-431 and HCC827 cells; format: cell-based; settings: A-431 cells; read-out: IC50 for inhibition of cellular EGFR phosphorylation
T1 construct: endogenous in cells; host or cells: A-431 and HCC827 cells

[4] = target: T2, epidermal growth factor receptor (EGFR) (Homo sapiens, UniProt P00533, DEL746-750); test: as above; format: cell-based; settings: HCC827 cells; read-out: IC50 for inhibition of cellular EGFR phosphorylation
T2 construct: endogenous in cells; host or cells: A-431 and HCC827 cells

[5] = target: T3, CD8-IGF1R (Homo sapiens, UniProt P01732+P08069); test: Western blot of IGF1R pathway phosphorylation and Cyclin D1 in NIH-3T3 CD8-IGF1R cells; format: cell-based, mouse; parameters: phosphorylation of the IGF1R cytotail, AKT and ERK1/2 / Cyclin D1 expression: dose or concentration left out as unconfirmed
T3 construct: cytoplasmic domain of human IGF1R (amino acids 959-1368); expressed in transfected cells
Method: NIH-3T3, SK-N-FI, MiaPaCa-2 and HCC827 cell lines were obtained from the American Type Culture Collection (ATCC, Manassas, VA). Cell lines were cultured and expanded in media according to ATCC guidelines. CD8-IGF1R was generated by an in-frame fusion of the extracellular and transmembrane domains of the human CD8α coding sequence (amino acids 1-207) followed by a BamHI restriction site to the cytoplasmic domain of human IGF1R (amino acids 959-1368). This product was cloned into the pIRESpuro3 vector (Clontech, Mountain View, CA) via AflII/NotI adaptors. NIH-3T3 CD8-IGF1R and vector control lines were generated by transfection of these constructs with FuGENE 6 (Roche Diagnostics, Basel, Switzerland) followed by selection with 2 μg/ml puromycin. Cells were dilution cloned and surviving colonies were screened for expression of the transgene. Cell clones positive for CD8-IGF1R expression and vector alone transfectants were pooled and remained under puromycin selection for the duration of the study.
Antibodies used included rabbit anti-ERK1/2 pTpY185/187 (Biosource, Camarillo, CA), rabbit anti-IGF-1Rβ and rabbit anti-Cyclin D1 (Santa Cruz Biotechnology, Inc., Santa Cruz, CA), rabbit anti-phospho-IGF-1Rβ (Tyr1135/1136)/IR (Tyr1150/1151), rabbit antiphospho-AKT (S473), rabbit anti-AKT, rabbit anti-ERK1/2, (Cell Signaling Technology, Inc., Beverly, MA) and mouse anti-ACTIN (Sigma, St. Louis, MO). All cell lysate samples were lysed directly in 2× LDS NuPAGE sample buffer with reducing reagent (Invitrogen, Carlsbad, CA) and were analyzed for levels of phosphorylated and total signaling proteins by Western blotting using the NuPAGE electrophoresis and transfer systems (Invitrogen, Carlsbad, CA) and near infrared detection.
All cells were grown in normal growth media containing 10% FBS. B, Cells were treated for 1 hour with A-928605 in a dose response analysis as shown. The CD8-IGF1R fusion protein runs as a doublet. […]

[6] = test system: NIH-3T3 CD8-IGF1R cells; test: Three day proliferation assay (MTS), NIH-3T3 CD8-IGF1R cells; format: cell-based
Method: (§2) Cells grown in soft agar were plated at 5,000 cells/well in 12-well tissue culture plates in a top layer of 0.3% noble agar on a 0.7% bottom layer. Media containing the final desired concentration of small molecule inhibitor was used as the agar overlay. For proliferation assays, 5,000 cells per well were plated in 96-well tissue culture treated plates and allowed to attach overnight. The following day small molecule inhibitors or DMSO control were added in duplicate at the indicated concentrations and cells were placed in tissue culture incubators for 72 hours. Cell viability was determined by an MTS assay (CellTiter Aqueous One, Promega, Madison, WI).
(§3) All cells were grown in normal growth media containing 10% FBS. B, Cells were treated for 1 hour with A-928605 in a dose response analysis as shown. The CD8-IGF1R fusion protein runs as a doublet. C and D, Three day proliferation assay in the NIH-3T3 vector control cells (C) or CD8-IGF1R cells (D) with increasing amounts of six clinical small molecule inhibitors and A-928605. Compounds were run in duplicate at each indicated concentration. Results are representative of 5 separate assays. Intended targets of each small molecule inhibitor are as follows: lapatinib, ERBB2 and EGFR; gefitinib, EGFR; dasatinib, ABL and SRC; Sorafinib, multi-targeted; imatinib, ABL and KIT; erlotinib, EGFR.

[7] = test system: NIH-3T3 vector control cells; test: Three day proliferation assay (MTS), NIH-3T3 vector control cells; format: cell-based; settings: 72 hours
Method: as §2, §3

[8] = test system: NIH-3T3 CD8-IGF1R cells; test: Soft agar anchorage-independent growth assay; format: cell-based; settings: 1 μM, three weeks
Method: as §2
Supplementary file 1471-2407-9-314-S2.jpeg: Additional File 2 Supplementary Figure S2. […] Cells were plated in soft agar with an overlay containing DMSO control (left) or a final concentration of 1 μM A-928605 (right). Cells were allowed to grow in a tissue culture incubator for three weeks before imaging. The 3T3 vector control line was not capable of anchorage-independent growth in soft agar (data not shown). Click here for file

[9] = test system: NIH-3T3 CD8-IGF1R cells; test: DNA microarray analysis, CD8-IGF1R cells; format: cell-based; settings: 1 μM, 24 hours
Method: Cells were treated with 1 μM of compound or DMSO control ([…] final concentration) and grown under normal conditions for 24 hours. Cells were then directly lysed in QIAzol RNA lysis reagent (Qiagen, Valencia, CA). Samples were homogenized using an Ultra Turrax T 25 homogenizer (IKA, Wilmington, SC) and then processed with the RNeasy 96 Universal Tissue 8000 kit (Qiagen, Valencia, CA) using a BioRobot 3000 liquid handler (Qiagen, Valencia, CA) and a Sigma 4K15C centrifuge (Sigma, Osterode am Harz, Germany) according to the Qiagen-prescribed protocol. […] GeneChip Operating Software (v1.4.036) was used to quantify perfect match and mismatch features on the scanned microarray images. After quantification, quality control was assured using the Affymetrix Power Tools Quality Reporter (v1.0.04) quality control metrics.
Data normalization and analysis were performed using Resolver 7.0 software (Rosetta Inpharmatics, Seattle, WA). Ratios were built for the average of each treatment versus the group average and a p-value was calculated for every-fold change using the Resolver Affymetrix error model. […]

[10] = test system: CD8 IGF1R flank tumors; test: CD8-IGF1R xenograft flank model; format: in vivo, mice; settings: 50 mg/kg i.p. b.i.d. for 10 days, end of dosing (day 26)
From the text: Figure 4 A-928605 abrogates modifications of IGF pathway signaling proteins in vitro and is efficacious in the CD8-IGF1R xenograft flank model in vivo. […] Cyclin D1 is a transcriptional target of the IGF signaling pathway and is therefore not affected by this one hour treatment.

[11] = test system: SK-N-FI cells; test: SK-N-FI proliferation in vitro; format: cell-based, human; settings: SK-N-FI cell line
Method: as §2

[12] = test system: SK-N-FI renal subcapsule tumors; test: SK-N-FI neuroblastoma renal subcapsule xenograft model; format: in vivo, mice; settings: 37.5 mg/kg i.p. b.i.d. for 14 days, end of dosing (day 28)
Method: For SK-N-FI renal subcapsule tumors, mice were anesthetized with intramuscular injections of ketamine (40 mg/kg) and rompum (5 mg/kg) before surgery. […] The peritoneal cavity was closed with 4-0 suture and skin incision was closed with clip. Fourteen days after tumor cell injection, tumor growth was assessed in cohort mice by necropsy (see Figure 1B) and study mice were reassigned at that time to treatment groups (N = 10) based on injection order. At the end of the dosing period, tumor weight was determined by comparing the weight of the tumor bearing kidney to that of the contralateral kidney.
Figure 5 Efficacy of A-928605 in the SK-N-FI neuroblastoma xenograft as a renal subcapsule model. A, A-928605 inhibits proliferation of SK-N-FI cells in vitro. […] B, Representative photograph taken of the tumor bearing and contralateral kidneys prior to the initiation of dosing on day 14 post tumor cell injection, indicating a tumor weight of 0.07 g. C, Representative photograph taken of the tumor bearing and contralateral kidneys at the end of the dosing schedule (day 28).

[13] = test system: MiaPaCa-2 flank tumors; test: MiaPaCa-2 pancreatic xenograft flank model; format: in vivo, mice; settings: A-928605 37.5 mg/kg i.p. b.i.d. 20 days; cetuximab 30 mg/kg i.p. 3×/week, 6 doses
Method: All animal studies were conducted in accordance with the guidelines established by the internal Institutional Animal Care and Use Committees. For CD8 IGF1R flank tumors, 5.0 × 10^5 cells/mouse were mixed with an equal volume of Matrigel (BD Biosciences) and injected subcutaneously into the flank of 6- to 8-week-old female nu/nu mice (22 g; Charles River Laboratories). The tumors were allowed to grow approximately 225 mm^3, and mice were reassigned into treatment groups (N = 10) based on tumor volume. At the initiation of treatment, the mean tumor volume ± SEM of the groups was approximately 231 ± 10 mm^3. For MiaPaCa-2 flank tumors, 1.0 × 10^6 cells/mouse were mixed with an equal volume of Matrigel and injected subcutaneously into the flank of 6- to 8-week-old female SCID mice (20 g; Charles River Laboratories). The tumors were allowed to grow approximately 225 mm^3, and mice were reassigned into treatment groups (N = 10) based on tumor volume. […] In all flank models, tumor growth was periodically analyzed by measurement with digital calipers and tumor volume was estimated from the formula (L × W ^2)/2. For all flank models, the effect of treatment on tumor growth rate was assessed by determining %T/C [(mean tumor volume of treated group on day X ÷ mean tumor volume of control group on day X) × 100]. […]

[14] = target: IGF1R and IR; test: IGF1R versus IR in vitro enzyme activity and cellular phosphorylation; settings: in vitro enzyme activity and cellular phosphorylation (data not shown)
[15] = test system: NIH-3T3 CD8-IGF1R cells; test: Morphology of CD8-IGF1R cells (phase contrast imaging); format: cell-based; settings: increasing concentrations, imaging two days after addition
Method: Supplementary file 1471-2407-9-314-S1.jpeg: Additional File 1 Supplementary Figure S1. Transformed morphology of the CD8-IGF1R cells. A, Phase contrast images of the NIH-3T3 vector control cells versus the NIH-3T3 CD8-IGF1R cells. B, Morphological dose response of the CD8-IGF1R line to A-928605 treatment. Cells were plated and allowed to adhere and proliferate overnight. The next day compound was added and imaging was performed two days later. The cellular morphology appears to revert back towards a naive 3T3 fibroblast at concentrations near or […] the IC50 of A-928605. All images were captured with a 20× objective. Click here for file

[16] = test system: HCC-827 flank tumors; test: HCC-827 NSCLC xenograft flank model
Method: All animal studies were conducted in accordance with the guidelines established by the internal Institutional Animal Care and Use Committees. For CD8 IGF1R flank tumors, 5.0 × 10^5 cells/mouse were mixed with an equal volume of Matrigel (BD Biosciences) and injected subcutaneously into the flank of 6- to 8-week-old female nu/nu mice (22 g; Charles River Laboratories). The tumors were allowed to grow approximately 225 mm^3, and mice were reassigned into treatment groups (N = 10) based on tumor volume. At the initiation of treatment, the mean tumor volume ± SEM of the groups was approximately 231 ± 10 mm^3. For MiaPaCa-2 flank tumors, 1.0 × 10^6 cells/mouse were mixed with an equal volume of Matrigel and injected subcutaneously into the flank of 6- to 8-week-old female SCID mice (20 g; Charles River Laboratories). The tumors were allowed to grow approximately 225 mm^3, and mice were reassigned into treatment groups (N = 10) based on tumor volume. At the initiation of treatment, the mean tumor volume ± SEM of the groups was approximately 210 ± 30 mm^3. […] The tumors were allowed to grow approximately 225 mm^3, and mice were reassigned into treatment groups (N = 10) based on tumor volume. At the initiation of treatment, the mean tumor volume ± SEM of the groups was approximately 300 ± 20 mm^3. In all flank models, tumor growth was periodically analyzed by measurement with digital calipers and tumor volume was estimated from the formula (L × W ^2)/2. For all flank models, the effect of treatment on tumor growth rate was assessed by determining %T/C [(mean tumor volume of treated group on day X ÷ mean tumor volume of control group on day X) × 100].
Erlotinib was dosed orally at 3.1 mg/kg, b.i.d. for 16 days.

T3 sequence (P01732+P08069 fused): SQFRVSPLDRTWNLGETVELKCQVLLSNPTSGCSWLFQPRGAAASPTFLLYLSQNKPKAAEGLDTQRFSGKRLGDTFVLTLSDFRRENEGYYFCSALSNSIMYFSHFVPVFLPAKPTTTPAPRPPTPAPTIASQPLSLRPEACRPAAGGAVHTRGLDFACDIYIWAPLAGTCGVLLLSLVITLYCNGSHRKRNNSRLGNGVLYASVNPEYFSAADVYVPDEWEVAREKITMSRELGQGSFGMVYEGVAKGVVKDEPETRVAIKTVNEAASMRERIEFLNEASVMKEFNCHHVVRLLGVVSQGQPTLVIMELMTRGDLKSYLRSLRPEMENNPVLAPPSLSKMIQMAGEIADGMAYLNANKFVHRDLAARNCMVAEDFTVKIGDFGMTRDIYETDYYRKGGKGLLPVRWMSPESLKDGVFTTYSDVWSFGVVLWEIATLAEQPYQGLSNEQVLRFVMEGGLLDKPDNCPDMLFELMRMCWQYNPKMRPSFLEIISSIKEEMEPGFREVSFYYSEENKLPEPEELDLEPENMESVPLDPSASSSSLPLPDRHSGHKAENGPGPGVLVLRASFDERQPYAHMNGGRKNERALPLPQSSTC
T2 sequence (P00533 with tags, fused parts or gaps DEL746-750): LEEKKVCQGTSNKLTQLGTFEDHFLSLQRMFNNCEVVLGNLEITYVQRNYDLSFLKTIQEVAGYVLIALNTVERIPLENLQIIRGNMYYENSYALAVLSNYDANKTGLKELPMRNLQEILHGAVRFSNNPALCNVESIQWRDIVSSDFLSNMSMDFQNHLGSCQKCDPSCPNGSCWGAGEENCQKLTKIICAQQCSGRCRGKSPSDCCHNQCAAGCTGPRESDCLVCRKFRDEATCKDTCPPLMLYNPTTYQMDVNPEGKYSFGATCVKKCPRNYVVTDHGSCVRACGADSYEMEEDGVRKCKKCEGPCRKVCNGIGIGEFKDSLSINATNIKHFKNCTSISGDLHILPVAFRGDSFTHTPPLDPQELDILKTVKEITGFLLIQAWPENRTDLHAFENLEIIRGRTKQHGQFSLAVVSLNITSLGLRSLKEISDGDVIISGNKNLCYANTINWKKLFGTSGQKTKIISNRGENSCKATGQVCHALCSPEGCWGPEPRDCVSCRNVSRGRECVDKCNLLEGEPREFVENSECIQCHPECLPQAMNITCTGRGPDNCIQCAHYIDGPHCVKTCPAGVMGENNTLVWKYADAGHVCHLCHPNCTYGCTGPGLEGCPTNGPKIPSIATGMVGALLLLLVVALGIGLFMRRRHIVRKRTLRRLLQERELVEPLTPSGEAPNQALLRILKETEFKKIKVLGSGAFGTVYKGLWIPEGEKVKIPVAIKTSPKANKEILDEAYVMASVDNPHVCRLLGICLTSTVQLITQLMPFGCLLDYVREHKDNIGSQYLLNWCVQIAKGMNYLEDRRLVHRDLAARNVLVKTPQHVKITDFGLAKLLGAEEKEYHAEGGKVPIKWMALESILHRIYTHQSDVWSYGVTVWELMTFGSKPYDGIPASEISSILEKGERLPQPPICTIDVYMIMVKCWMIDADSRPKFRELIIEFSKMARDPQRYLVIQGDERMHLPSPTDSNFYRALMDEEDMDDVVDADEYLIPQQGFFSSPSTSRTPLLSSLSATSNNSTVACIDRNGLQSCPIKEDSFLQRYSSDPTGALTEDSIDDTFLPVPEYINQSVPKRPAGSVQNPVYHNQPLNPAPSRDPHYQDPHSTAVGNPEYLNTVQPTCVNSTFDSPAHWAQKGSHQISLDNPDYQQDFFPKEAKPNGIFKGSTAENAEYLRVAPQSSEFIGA
Chain of IR (P06213 28-1382): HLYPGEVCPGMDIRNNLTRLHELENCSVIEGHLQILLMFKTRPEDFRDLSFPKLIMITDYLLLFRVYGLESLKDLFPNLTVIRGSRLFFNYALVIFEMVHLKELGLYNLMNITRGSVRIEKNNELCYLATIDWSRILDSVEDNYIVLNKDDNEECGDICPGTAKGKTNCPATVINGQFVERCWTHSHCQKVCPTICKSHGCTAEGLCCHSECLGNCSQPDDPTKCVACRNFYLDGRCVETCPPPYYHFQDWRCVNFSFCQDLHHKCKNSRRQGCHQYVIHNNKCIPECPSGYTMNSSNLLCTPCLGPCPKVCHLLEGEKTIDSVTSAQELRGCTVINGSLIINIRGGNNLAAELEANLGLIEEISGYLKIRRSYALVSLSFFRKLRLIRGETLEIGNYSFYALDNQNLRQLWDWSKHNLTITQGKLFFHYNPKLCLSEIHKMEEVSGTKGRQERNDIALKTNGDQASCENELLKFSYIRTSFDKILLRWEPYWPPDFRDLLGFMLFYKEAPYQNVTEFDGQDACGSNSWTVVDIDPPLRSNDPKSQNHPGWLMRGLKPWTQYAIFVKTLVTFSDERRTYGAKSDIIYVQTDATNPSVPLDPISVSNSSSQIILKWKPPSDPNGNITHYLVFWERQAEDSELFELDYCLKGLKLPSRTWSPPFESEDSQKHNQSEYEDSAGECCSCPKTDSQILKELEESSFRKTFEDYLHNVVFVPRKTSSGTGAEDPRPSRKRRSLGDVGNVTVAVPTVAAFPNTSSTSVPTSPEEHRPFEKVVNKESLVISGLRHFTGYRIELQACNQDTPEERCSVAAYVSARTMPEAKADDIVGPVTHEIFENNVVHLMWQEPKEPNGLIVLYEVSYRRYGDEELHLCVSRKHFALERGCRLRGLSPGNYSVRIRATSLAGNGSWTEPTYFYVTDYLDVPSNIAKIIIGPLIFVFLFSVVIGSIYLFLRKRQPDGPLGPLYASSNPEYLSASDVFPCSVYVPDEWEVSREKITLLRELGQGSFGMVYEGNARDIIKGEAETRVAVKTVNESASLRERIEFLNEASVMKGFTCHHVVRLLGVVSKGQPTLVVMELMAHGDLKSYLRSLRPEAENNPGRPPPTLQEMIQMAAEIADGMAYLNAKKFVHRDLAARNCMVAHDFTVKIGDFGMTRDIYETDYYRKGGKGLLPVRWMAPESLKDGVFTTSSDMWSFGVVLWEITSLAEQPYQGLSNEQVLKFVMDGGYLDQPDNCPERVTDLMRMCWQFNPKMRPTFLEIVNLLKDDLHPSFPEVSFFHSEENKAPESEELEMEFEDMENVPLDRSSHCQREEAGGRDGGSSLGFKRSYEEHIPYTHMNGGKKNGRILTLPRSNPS
Chain of IGF1R (P08069 31-1367, species assumed): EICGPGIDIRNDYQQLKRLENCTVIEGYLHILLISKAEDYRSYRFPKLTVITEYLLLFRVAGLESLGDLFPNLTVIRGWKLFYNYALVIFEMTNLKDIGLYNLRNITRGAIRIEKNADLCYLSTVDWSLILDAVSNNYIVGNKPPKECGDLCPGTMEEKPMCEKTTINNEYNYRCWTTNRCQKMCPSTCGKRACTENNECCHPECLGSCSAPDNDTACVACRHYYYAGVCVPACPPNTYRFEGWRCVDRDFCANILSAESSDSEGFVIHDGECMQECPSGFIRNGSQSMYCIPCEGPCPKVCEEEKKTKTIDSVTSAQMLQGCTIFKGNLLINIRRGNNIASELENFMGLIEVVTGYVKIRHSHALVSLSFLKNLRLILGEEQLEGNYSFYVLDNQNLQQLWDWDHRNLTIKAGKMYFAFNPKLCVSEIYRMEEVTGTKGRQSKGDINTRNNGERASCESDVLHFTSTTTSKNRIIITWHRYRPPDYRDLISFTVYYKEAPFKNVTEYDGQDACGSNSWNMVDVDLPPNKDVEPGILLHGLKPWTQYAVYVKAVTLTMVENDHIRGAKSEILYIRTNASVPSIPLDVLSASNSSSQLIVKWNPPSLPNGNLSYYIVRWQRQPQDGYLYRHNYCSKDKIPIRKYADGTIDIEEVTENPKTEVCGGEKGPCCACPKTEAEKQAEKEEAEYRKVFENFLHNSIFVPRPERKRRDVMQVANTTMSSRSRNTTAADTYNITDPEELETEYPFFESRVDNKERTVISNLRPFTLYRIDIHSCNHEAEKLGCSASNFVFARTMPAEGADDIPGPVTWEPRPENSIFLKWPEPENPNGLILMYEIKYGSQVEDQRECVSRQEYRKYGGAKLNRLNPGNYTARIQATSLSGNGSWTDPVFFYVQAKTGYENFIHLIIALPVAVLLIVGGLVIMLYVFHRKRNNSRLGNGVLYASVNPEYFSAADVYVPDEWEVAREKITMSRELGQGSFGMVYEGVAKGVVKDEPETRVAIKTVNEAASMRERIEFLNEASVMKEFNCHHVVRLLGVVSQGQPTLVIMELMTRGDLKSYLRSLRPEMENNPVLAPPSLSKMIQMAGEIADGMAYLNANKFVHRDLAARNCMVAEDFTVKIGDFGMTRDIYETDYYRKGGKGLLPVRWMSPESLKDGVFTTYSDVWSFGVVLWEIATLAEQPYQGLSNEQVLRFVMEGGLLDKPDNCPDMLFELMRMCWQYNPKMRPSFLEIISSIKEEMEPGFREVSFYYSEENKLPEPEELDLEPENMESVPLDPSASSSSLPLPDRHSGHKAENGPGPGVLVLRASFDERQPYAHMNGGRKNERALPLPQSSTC

Ki [1]: < 10 nM
Ki [2]: < 10 nM
IC50 [3]: > 10000 nM
IC50 [4]: > 10000 nM
Cyclin D1 expression ([5]; 24-hours of treatment): significant decrease
IC50 ([5]; CD8-IGF1R cell line, 1 hour treatment, inhibition near known cellular IC50, read-out: cellular phosphorylation IC50 (dose-dependent inhibition of IGF1R phosphorylation)): ~100 nM
phosphorylation of the IGF1R cytotail, AKT and ERK1/2 ([5]; one hour of treatment, CD8-IGF1R cells): inhibition of phosphorylation
IC50s against IGF1R versus IR [14]: roughly equipotent
Structure (SMILES): Nc1ncnc2c1c(-c1ccc3[nH]c(Cc4ccccc4Cl)nc3c1)nn2[C@H]1CC[C@H](N2CCOCC2)CC1 [A-928605, 3-(2-(2-chlorobenzyl)-1 H-benzo [d]imidazol-5-yl)-1-((1 r, 4 r)-4-morpholinocyclohexyl)-1 H-pyrazolo [3,4-d]pyrimidin-4-amine]
IC50 ([6]; Mus musculus, NIH3T3, CD8-IGF1R cells, 72 hours, read-out: IC50, inhibition of cellular proliferation): < 300 nM
effect on cellular proliferation [7]: little effect
inhibition of anchorage-independent growth in soft agar [8]: completely inhibiting; also recorded: inhibits growth
decrease in Ccn d1 transcripts [9]: 4.8 fold
up-regulation of Cdkn1a (p21) [9]: 1.5 fold
%T/C (tumor volume, treated vs. vehicle) [10]: 21%
inhibition of proliferation in vitro [11]: effectively inhibit proliferation
%T/C (tumor weight, treated vs. vehicle) [12]: 58%
%T/C, monotherapy compared to appropriate controls [13]: approximately 80%
transformed phenotype (morphology) [15]: reversal of their transformed phenotype
tumor response in words ([16]; size-matched HCC827 xenografts, 16 days dosing): not consistently statistically different from its vehicle control; also recorded: partial responses

Structure (SMILES): Cc1nc(Nc2ncc(C(=O)Nc3c(C)cccc3Cl)s2)cc(N2CCN(CCO)CC2)n1 [Dasatinib, reference compound]
effect on cellular proliferation ([6]; CD8-IGF1R line, concentrations up to 10 μM): no effect
effect on cellular proliferation [7]: potent inhibitor

Structure (SMILES): C#Cc1cccc(Nc2ncnc3cc(OCCOC)c(OCCOC)cc23)c1 [erlotinib, reference compound]
tumor response in words ([16]; mouse, in vivo): partial responses
